One assay concerns Rattus norvegicus. Kind of assay: Anticonvulsant activity against maximal electroshock-induced seizures in po dosed rat. The assay is classed as functional. (In general: In the maximal electroshock model the usual endpoint is tonic extension of the hind limbs.)
For a further assay, the target named is Carbonic anhydrase 1 (Homo sapiens, UniProt P00915).
In the next assay the target is Carbonic anhydrase 2 (Homo sapiens, UniProt P00918).
The next assay has as its target Carbonic anhydrase 7 (Homo sapiens, UniProt P43166).
For another assay, the target named is Carbonic anhydrase 14 (Homo sapiens, UniProt Q9ULX7).

For orientation: ED50 means the dose that gives a 50% effect, or the effect in half of the subjects. In general, Ki refers to the equilibrium dissociation constant of an inhibitor or competing ligand from its target. High values mean weaker binding, low ones tighter binding.

Chain of Carbonic anhydrase 14 (Q9ULX7 whole entry): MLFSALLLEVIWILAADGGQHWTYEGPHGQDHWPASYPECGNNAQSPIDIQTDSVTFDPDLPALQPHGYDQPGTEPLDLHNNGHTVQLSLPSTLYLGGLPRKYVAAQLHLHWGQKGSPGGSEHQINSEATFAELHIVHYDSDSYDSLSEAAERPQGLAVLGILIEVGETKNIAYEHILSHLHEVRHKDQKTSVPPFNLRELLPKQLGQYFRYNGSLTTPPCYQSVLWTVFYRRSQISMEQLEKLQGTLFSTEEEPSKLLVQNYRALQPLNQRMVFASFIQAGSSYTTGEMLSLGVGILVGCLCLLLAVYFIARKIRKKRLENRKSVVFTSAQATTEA
Chain of Carbonic anhydrase 7 (P43166 whole entry): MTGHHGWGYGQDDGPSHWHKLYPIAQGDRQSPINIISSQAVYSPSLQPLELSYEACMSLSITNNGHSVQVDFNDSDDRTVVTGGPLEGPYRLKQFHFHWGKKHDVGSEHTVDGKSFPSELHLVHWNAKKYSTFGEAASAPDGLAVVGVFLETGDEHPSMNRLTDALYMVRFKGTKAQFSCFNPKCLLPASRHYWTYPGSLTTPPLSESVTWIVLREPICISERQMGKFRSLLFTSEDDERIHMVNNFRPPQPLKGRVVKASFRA
Chain of Carbonic anhydrase 1 (P00915 whole entry): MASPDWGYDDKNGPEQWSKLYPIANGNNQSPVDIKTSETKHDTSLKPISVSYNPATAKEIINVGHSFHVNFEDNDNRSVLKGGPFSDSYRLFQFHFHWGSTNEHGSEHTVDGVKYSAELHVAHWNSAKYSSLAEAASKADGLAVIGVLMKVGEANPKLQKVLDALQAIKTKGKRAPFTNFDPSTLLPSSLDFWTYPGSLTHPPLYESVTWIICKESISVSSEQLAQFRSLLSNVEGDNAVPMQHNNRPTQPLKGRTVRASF
Description for Carbonic anhydrase 14: Inhibition of human carbonic anhydrase 14 preincubated with compound for 15 mins by carbon dioxide hydration assay
Description for Carbonic anhydrase 2: Inhibition of human carbonic anhydrase 2 preincubated with compound for 15 mins by carbon dioxide hydration assay
Description for Carbonic anhydrase 7: Inhibition of human carbonic anhydrase 7 preincubated with compound for 15 mins by carbon dioxide hydration assay

For `NS(=O)(=O)Cc1noc2ccccc12` [ZONISAMIDE], the ED50 in the assay with Rattus norvegicus was found to be 100 µmol/kg.
Same read-out and setting: under `CC(C)(C)CC(=O)Nc1ccc(S(N)(=O)=O)cc1` stands 35 µmol/kg.
The compound `CCCC(C)C(=O)Nc1ccc(S(N)(=O)=O)cc1` (configuration not stated) showed an ED50 in the assay on Rattus norvegicus of 40 µmol/kg. The Ki on Carbonic anhydrase 1 was determined as 1.71 µM; on Carbonic anhydrase 2, 0.22 µM; on Carbonic anhydrase 7, 0.605 µM; at Carbonic anhydrase 14, 0.644 µM.
In the assay on Rattus norvegicus, `CCCCC(CC)C(=O)Nc1ccc(S(N)(=O)=O)cc1` (configuration not stated) showed an ED50 of 80 µmol/kg.
As for `CC(C)C(C(=O)Nc1ccc(S(N)(=O)=O)cc1)C(C)(C)C` (configuration not stated), the ED50 with Rattus norvegicus is 58 µmol/kg.
Same read-out and setting: for `CCC(C)CC(=O)Nc1ccc(S(N)(=O)=O)cc1` (configuration not stated) the value was 61 µmol/kg.
Turning to `CCC(CC)C(=O)NCCc1ccc(S(N)(=O)=O)cc1`, the Ki on Carbonic anhydrase 1 amounted to 0.407 µM; at Carbonic anhydrase 2 it was 0.0338 µM; at Carbonic anhydrase 7, 0.051 µM; on Carbonic anhydrase 14, 0.684 µM.
Take `CCCC(CC)C(=O)Nc1ccc(S(N)(=O)=O)cc1` (configuration not stated): the ED50 with Rattus norvegicus came to 41 µmol/kg.
As to `CCC(CC)C(=O)Nc1ccc(S(N)(=O)=O)cc1`, in the assay on Rattus norvegicus, the ED50 worked out at 37 µmol/kg.
On to `NS(=O)(=O)c1ccc(NC(=O)Cc2ccccc2)cc1`, for which the ED50 with Rattus norvegicus came out at 55 µmol/kg. The Ki came to 0.0076 µM at Carbonic anhydrase 1, 0.052 µM at Carbonic anhydrase 7 and 0.046 µM at Carbonic anhydrase 14.
For `CCC(CC)C(=O)NCc1ccc(S(N)(=O)=O)cc1`, the ED50 in the assay with Rattus norvegicus came to 87 µmol/kg.
Still for that read-out and setting: under `CCC(CC(C)C)C(=O)Nc1ccc(S(N)(=O)=O)cc1` (configuration not stated) stands 56 µmol/kg.
Same read-out and setting: under `CCCC(C(=O)Nc1ccc(S(N)(=O)=O)cc1)C(C)CC` (configuration not stated) stands 115 µmol/kg.
Regarding `CC1(C)O[C@@H]2[C@@H](CO[C@@]3(COS(N)(=O)=O)OC(C)(C)O[C@@H]23)O1` [TOPIRAMATE], in the assay on Rattus norvegicus, the ED50 was found to be 10 µmol/kg.
The same measure, in the same setting: under `CCC(C)C(=O)Nc1ccc(S(N)(=O)=O)cc1` (configuration not stated) stands 30 µmol/kg.
Still for that read-out and setting: for `CCCC(C(=O)Nc1ccc(S(N)(=O)=O)cc1)C(C)C` (configuration not stated) the value was 139 µmol/kg; for `CC(C)(C)C(=O)Nc1ccc(S(N)(=O)=O)cc1`, 165 µmol/kg.
